For assay [1], the system named is HT22 cells. Description: Oxidative glutamate toxicity in HT22 cells, MTT assay. The following applies: for IC50: Mus musculus, read-out: concentration of half inhibition (IC50) of oxidative glutamate toxicity. It counts as cell-based, mouse. The protocol:
(§1) DPPD and its derivatives, shown in FIG. 1, were obtained from Ouchi Shinko Chemical Industrial (Tokyo, Japan). The compounds were dissolved in dimethyl sulfoxide (DMSO). The final concentration of DMSO in the culture medium was 0.1%. TNFα, actinomycin D (AcD), XA, XO, glutamate and H2O2 were purchased from Sigma (St. Louis, Mo., USA). HT22 cells were cultured and MTT assays were performed as described previously. Experiments presented here were repeated at least 3 times with 4 samples for each determination. The data are presented as the mean ±SD (for in vitro experiments). In order to examine the neuroprotective effects of DPPD, we employed the following 4 death-inducing agents: 1) glutamate (oxidative stress, transcription-dependent), 2) TNFα (receptor-mediated apoptosis, transcription-independent), 3) H2O2 (oxidative stress, transcription-independent) and 4) XA+XO (oxidative stress, transcription-independent). In FIG. 1, squares, DPPD; circles, D1; triangles, D2. […] HT22 cells were seeded into 24-well plates at a density of 4×10^4 cells/cm^2. After a 5-hr incubation, various concentrations of the compounds were added. One hour later, 5 mM of glutamate was added to the cultures, and 20 h thereafter, the cells were subjected to the MTT assay. The values, which represent the percentage of the control MTT activity, are means ±S.D.s (n=4).
In order to determine whether the inhibition was substantially specific to cell death by oxidative glutamate toxicity, the effects of these compounds on the cell death induced by various stimuli were examined. Adverting to FIGS. 2A, 2B, 2C and 2D, 2HT22 cells were seeded into 24-well plates at a density of 4×10^4 cells/cm^2. After a 5-hr incubation, various concentrations of DPPD were added. One hour later, the cells were treated for 20 h with glutamate (A), TNFα in the presence of 0.1 μg/ml AcD (B), H2O2 (C) and XO in the presence of 0.1 mg/ml of XA (D) and then were subjected to the MTT assay. The values, which represent the percentage of the control MTT activity, are means ±S.D.s (n=4).

In assay [2] the test system is HT22 cells. Description: TNFα-induced cell death of HT22 cells (with AcD), MTT assay. It counts as cell-based, mouse. The following applies: 0.1 or 1.0 ng/ml TNFα with 0.1 μg/ml AcD, 20 h, MTT (FIG. 2B). How it is done:
as §1, with “(n=4). […]” for “(n=4).”

Assay [3] has as its system HT22 cells. Briefly: H2O2-induced cell death of HT22 cells, MTT assay. The following applies: 30 or 50 μM H2O2, 20 h, MTT (FIG. 2C). It counts as cell-based, mouse. How it is done: as §1, with “(n=4). […]” for “(n=4).”
On the technique in general: Tetrazolium assays rely on reduction of a dye to a coloured formazan, in cell work by metabolically active cells.

Assay [4] has as its system HT22 cells. Briefly: XA+XO-induced cell death of HT22 cells, MTT assay. The following applies: 15 or 30 mU/ml XO with 0.1 mg/ml XA, 20 h, MTT (FIG. 2D). It counts as cell-based, mouse. How it is done:
as §1, with “(n=4). […]” for “(n=4).”

The test system of another assay is PC12 cells. The following applies: DPPD at μM concentrations; associated with decrease in intracellular ROS levels [13]; cited from earlier work.
[5] abbreviates: HT-22, HT22 cells, 5 mM glutamate, 20 h, MTT assay.

Like-named read-outs stand apart in the source and are kept apart here.

This is an account of results in patent publication US7696251B2, “Method for inhibiting neuronal cell death induced by oxidative glutamate toxicity” (Incorporated National University Iwate University, priority 2007, dated 2010).

For the molecule `CC(C)Nc1ccc(Nc2ccccc2)cc1` [D1], the IC50 in the assay on HT22 cells [1] (HT-22, 20 h) stood at 5.4 nM.

For the molecule `Nc1ccc(Nc2ccccc2)cc1` [D2], the IC50 in the assay with HT22 cells [1] (setting [5]) worked out at 26 nM.

For `Nc1ccc(N)cc1` [D3], in the assay on HT22 cells [1] (HT-22, 20 h), the IC50 was determined as 879 nM.

As for `Nc1ccccc1` [D4], in the assay on HT22 cells [1] (setting [5]), the IC50 stood at 94000 nM.

Regarding `c1ccc(Nc2ccc(Nc3ccccc3)cc2)cc1` [DPPD, N,N′-Diphenyl-p-phenylenediamine], in the assay with HT22 cells [1] (DPPD at 1-10 nM, 5 or 10 mM glutamate, 20 h, MTT (FIG. 2A)), the “protection against death induced by glutamate” value was “almost completely blocked”. Further, in the assay on HT22 cells [1] (HT-22, 20 h), the IC50 was found to be 7.7 nM. In addition, the “protection against TNFα-induced neuronal death” value in the assay on HT22 cells [2] is reported as “substantially ineffective”. Also, in the assay with HT22 cells [3], the “protection against H2O2-induced cell death” value is reported as “did not substantially protect”. In addition, the “protection against XA+XO-induced cell death” value in the assay on HT22 cells [4] is listed as “did not substantially protect”. In the assay with PC12 cells, the “protection of PC12 cells against lipid peroxide” value was “protected”.
